# According to ChEMBL document CHEMBL5518206, “Hit-to-Lead Identification and Validation of a Triaromatic Pleuromutilin Antibiotic Candidate” (J Med Chem, 2024):
# Calls of active or inactive are those of the source. The rule behind the calls is not given here.
# Experiments:
# in vitro [1] = settings: human
# Listeria = experiment: Antibacterial activity against Listeria assessed as inhibition of visible growth incubated for 20 to 24 hrs by microbroth serial dilution assay; assay type: functional, organism-based; settings: time 20-24 hrs
# Enterococcus faecium [2] = experiment: Antibacterial activity against Linezolid/Ampicillin/ciprofloxacin/Vancomycin-resistant Enterococcus faecium assessed as inhibition of visible growth incubated for 20 to 24 hrs by microbroth serial dilution assay; assay type: functional; settings: time 20-24 hrs, read-out: MIC100
# [3] = tested on: Staphylococcus epidermidis; experiment: Antibacterial activity against Staphylococcus epidermidis assessed as inhibition of visible growth incubated for 20 to 24 hrs by microbroth serial dilution assay; assay type: functional, organism-based; settings: time 20-24 hrs
# Escherichia coli = experiment: Antibacterial activity against Escherichia coli assessed as inhibition of visible growth incubated for 20 to 24 hrs by microbroth serial dilution assay; assay type: functional, organism-based; settings: time 20-24 hrs
# in vitro [4] = settings: human; remark: listed apart in the source
# in vitro [5] = settings: pig
# [6] = Inhibition of P-gp efflux in MDCKII-MDR1 cells using calcein-AM as substrate assessed as intracellular calcein fluorescence preincubated for 15 mins followed by substrate addition and measured by fluorescence based assay; assay type: cell-based; settings: Canis lupus familiaris
# in vitro [7] = settings: pig; remark: listed apart in the source
# MDCK-MDR1 = experiment: Cytotoxicity against MDCKII-MDR1 cells assessed as cell viability at 100 uM measured by MTT assay; assay type: toxicity, cell-based, Canis lupus familiaris; settings: dog, mdck-mdr1, 100 µM
# in vitro [8] = settings: mouse
# Streptococcus pneumoniae = experiment: Antibacterial activity against Streptococcus pneumoniae assessed as inhibition of visible growth incubated for 20 to 24 hrs by microbroth serial dilution assay; assay type: functional; settings: time 20-24 hrs, read-out: MIC100
# in vitro [9] = settings: mouse; remark: listed apart in the source
# Enterococcus faecalis = experiment: Antibacterial activity against Enterococcus faecalis assessed as inhibition of visible growth incubated for 20 to 24 hrs by microbroth serial dilution assay; assay type: functional; settings: time 20-24 hrs, read-out: MIC100
# Staphylococcus aureus = experiment: Antibacterial activity against multi drug-resistant Staphylococcus aureus USA300 FPR3757 assessed as inhibition of visible growth incubated for 20 to 24 hrs by microbroth serial dilution assay; assay type: functional; settings: time 20-24 hrs, read-out: MIC100
# Enterococcus faecium [10] = experiment: Antibacterial activity against Vancomycin-resistant Enterococcus faecium assessed as inhibition of visible growth incubated for 20 to 24 hrs by microbroth serial dilution assay; assay type: functional; settings: time 20-24 hrs, read-out: MIC100
# [11] = Solubility of the compound in Dulbecco's PBS at 20 degree C measured after 24 hrs
Compound,"half-life at 0.5 h, 1 µM (in vitro [1]; liver microsomes) [min]",MIC (Enterococcus faecium [2]) [µg/mL],"CLint scaled at 0.5 h, 1 µM (in vitro [4]; liver microsomes) [L/h/kg]",IC50 [6] [µM],Activity (MDCK-MDR1),"CLint scaled at 0.5 h, 1 µM (in vitro [8]; liver microsomes) [L/h/kg]",MIC (Streptococcus pneumoniae) [µg/mL],"half-life at 0.5 h, 1 µM (in vitro [9]; liver microsomes) [min]",MIC (Enterococcus faecalis) [µg/mL],MIC (Staphylococcus aureus) [µg/mL],MIC (Enterococcus faecium [10]) [µg/mL],solubility at 24 h [11] [µM],other results
C=C[C@]1(C)C[C@@H](OC(=O)Cn2cc(-c3ccc(Cn4cnc5c(N6CCN(C)CC6)ncnc54)cc3)nn2)[C@]2(C)[C@H](C)CC[C@]3(CCC(=O)[C@H]32)[C@@H](C)[C@@H]1O,1.4,0.12,266,2,Non-Toxic,293,0.12,1.1,,,,,"Activity (Listeria): inactive; Activity [3]: inactive; Activity (Escherichia coli): inactive; half-life at 0.5 h, 1 µM (in vitro [5]; liver microsomes): 0.5 min; CLint scaled at 0.5 h, 1 µM (in vitro [7]; liver microsomes): 630 L/h/kg"
C=C[C@]1(C)C[C@@H](OC(=O)Cn2cc(-c3ccc(Cn4cnc5c(N)ncnc54)nc3)nn2)[C@]2(C)[C@H](C)CC[C@]3(CCC(=O)[C@H]32)[C@@H](C)[C@@H]1O,1.9,0.12,194,98,Non-Toxic,571,0.25,0.58,0.25,0.03,0.12,6.7,
C=C[C@]1(C)C[C@@H](OC(=O)Cn2cc(-c3ccc([C@@H](C)n4cnc5c(N6CCNCC6)ncnc54)cc3)nn2)[C@]2(C)[C@H](C)CC[C@]3(CCC(=O)[C@H]32)[C@@H](C)[C@@H]1O,,0.25,,7,,,0.25,,0.5,0.25,0.25,10,
C=C[C@]1(C)C[C@@H](OC(=O)Cn2cc(-c3ccc(Cn4cnc5c(N)ncnc54)c(O)c3)nn2)[C@]2(C)[C@H](C)CC[C@]3(CCC(=O)[C@H]32)[C@@H](C)[C@@H]1O,1.2,0.25,317,> 100,Non-Toxic,586,0.25,0.56,0.25,0.03,0.25,2.5,
O=C(O)Cc1ccccc1Nc1c(Cl)cccc1Cl [DICLOFENAC],,,,,,,,,,,,,"half-life at 0.5 h, 1 µM (in vitro [1]; microsomes): 18.8 min; CLint scaled at 0.5 h, 1 µM (in vitro [4]; microsomes): 19.9 L/h/kg; half-life at 0.5 h, 1 µM (in vitro [5]; microsomes): 37.9 min; CLint scaled at 0.5 h, 1 µM (in vitro [7]; microsomes): 8.7 L/h/kg; CLint scaled at 0.5 h, 1 µM (in vitro [8]; microsomes): 6.36 L/h/kg; half-life at 0.5 h, 1 µM (in vitro [9]; microsomes): 51.7 min"
C=C[C@]1(C)C[C@@H](OC(=O)Cn2cc(-c3ccc([C@H](C)n4cnc5c(N6CCNCC6)ncnc54)cc3)nn2)[C@]2(C)[C@H](C)CC[C@]3(CCC(=O)[C@H]32)[C@@H](C)[C@@H]1O,,0.5,,,,,0.5,,0.5,0.5,0.5,,
